# Laboratory results taken from ChEMBL document CHEMBL1143449, “Exploring the connection unit in the HDAC inhibitor pharmacophore model: novel uracil-based hydroxamates” (Bioorg Med Chem Lett, 2005).
# Assays:
# [1] = Inhibitory concentration against Histone deacetylase 1B in maize; format: functional, Zea mays
# [2] = Inhibitory concentration against Histone deacetylase 1A in maize; format: functional, Zea mays
# [3] = tested on: Zea mays; assay: Selectivity of for class II (HD1A) against class I (HD1B) histone deacetylases; format: functional
# [4] = biological target: T1, Histone deacetylase HD2 (Zea mays, UniProt Q94F81); assay: Inhibitory concentration against Histone deacetylase 2 in maize; format: functional
# T1 sequence (Q94F81 whole entry): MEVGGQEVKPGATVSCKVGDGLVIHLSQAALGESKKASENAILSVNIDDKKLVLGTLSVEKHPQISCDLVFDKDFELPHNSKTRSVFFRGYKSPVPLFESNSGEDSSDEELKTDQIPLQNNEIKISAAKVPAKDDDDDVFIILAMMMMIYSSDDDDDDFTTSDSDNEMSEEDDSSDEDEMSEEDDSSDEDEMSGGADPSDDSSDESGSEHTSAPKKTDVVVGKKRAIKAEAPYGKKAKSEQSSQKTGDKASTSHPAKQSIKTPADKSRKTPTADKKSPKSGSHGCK
# [5] = tested on: Zea mays; assay: Selectivity for class I (HD1B) against class II (HD1A) histone deacetylases; format: functional
SMILES,IC50 [1] [nM],IC50 [2] [nM],Selectivity index [3],IC50 [4] [nM],Selectivity index [5]
CCc1ccccc1-c1cc(O)nc(SCCCCCC(=O)NO)n1,48,25,2,35,–
O=C(CCCSc1nc(Cc2ccccc2)cc(=O)[nH]1)NO,–,–,–,229,–
O=C(O)[C@@H]1C[C@]2(C(=O)O)C=C[C@@H](O)[C@@H](C2)O1,0.4,0.8,–,7,2
O=C(CCCCCCC(=O)Nc1ccccc1)NO [VORINOSTAT],28,–,–,–,–
O=C(CCCCCCCSc1nc(O)cc(Cc2ccccc2)n1)NO,193,64,3,61,–
O=C(CCCCCCSc1nc(O)cc(Cc2ccccc2)n1)NO,76,53,–,37,–
Cc1cc(O)nc(SCCCCCC(=O)NO)n1,112,78,–,110,–
O=C(CCCSc1nc(O)cc(Cc2ccccc2)n1)NO,251,885,–,–,3.5
O=C(CCSc1nc(O)cc(Cc2ccccc2)n1)NO,41,126,–,38,3.1
O=C(CCCCCSc1nc(-c2ccccc2)cc(=O)[nH]1)NO,19,6,3.2,12,–
CCCc1cc(O)nc(SCCCCCC(=O)NO)n1,116,66,–,135,–
O=C(CCCCSc1nc(O)cc(Cc2ccccc2)n1)NO,130,181,–,125,–
O=C(/C=C/Sc1nc(O)cc(Cc2ccccc2)n1)NO,7400,13300,–,9000,–
O=C(CC1CSc2nc(Cc3ccccc3)cc(=O)n21)NO (stereo not drawn),30200,38200,–,31800,–
O=C(CCCCCSc1nc(Cc2ccccc2)cc(=O)[nH]1)NO,–,29,–,18,–
O=C(CCCCCSc1nccc(O)n1)NO,239,132,–,213,–
